According to US11357766B2, “Compositions and methods for treating cancer” (Texas Tech University System, priority 2017, dated 2022):

Experiments:
AsPC1 cells = assay: AnnexinV/FITC apoptosis assay; type: cell-based, human; settings: 7.5 μM, 48 hours
Experimental: (§1) Briefly, the following cells were treated at 0.2×10^6, in FIG. 2A AsPC1 cells, FIG. 2B BxPC3 cells, and in FIG. 2C PANC1 cells, which were plated and treated with 5, 7.5 and 10 μM pimavanserin tartrate for 48 hours. Percent apoptotic cells was evaluated by AnnexinV/FITC apoptosis assay using Accuri C6 flow cytometer. Studies were repeated independently 3 times.
(§2) AnnexinV/FITC apoptosis assay. The effects of pimavanserin in inducing apoptosis were assessed by AnnexinV/FITC apoptosis assay. The assay was performed by FITC AnnexinV apoptosis detection kit (BD biosciences, San Jose, Calif., USA). Briefly, 0.2×10^6 pancreatic cancer cells were plated in each well of 6-well plate and incubate overnight for the cells to attach. The cells were then treated with varying concentrations of pimavanserin tartrate. After 48 hours, cells were trypsinized and suspended in PBS. Cells were washed and re-suspended in 150 μl of annexin binding buffer. The cells were then stained with 4 μl AnnexinV FITC and 4 μl propidium iodide for 20 minutes in dark. Post incubation, the volume was adjusted to 350 μl by adding annexin binding buffer. Samples were then analyzed by flow cytometer (Accuri C6, AnnArbor, Mich., USA) as previously described by the present inventors (7).
(§3) Pimavanserin induces apoptosis in pancreatic cancer cells. In order to determine the mechanism of anti-proliferative effects of pimavanserin tartrate, apoptosis induction by pimavanserin tartrate treatment was determined in AsPC1, BxPC3 and PANC1 pancreatic cancer cells by AnnexinV/FITC assay using flow cytometer. […] Treatment of AsPC1 and BxPC3 cells with 7.5 μM pimavanserin caused 2-fold increase in apoptotic cells (FIG. 2A, 2B), whereas in PANC1 cells, a 4-fold increase in apoptotic cells was observed (FIG. 2C). […] Induction of apoptosis by pimavanserin treatment in AsPC1, BxPC3 and PANC1 cells was confirmed by cleavage of caspase 3 (FIGS. 3A-3C).

BxPC3 cells = assay: AnnexinV/FITC apoptosis assay; type: cell-based, human; settings: 48 hours
Experimental: as §1, §2, §3

CC(C)COc1ccc(CNC(=O)N(Cc2ccc(F)cc2)C2CCN(C)CC2)cc1 [pimavanserin, N-(4-fluorophenylmethyl)-N-(1-methylpiperidin-4-yl)-N′-(4-(2-methylpropyloxy)phenylmethyl)carbamide]
increase in apoptotic cells (AsPC1 cells): 2 fold
increase in apoptotic cells (BxPC3 cells; 7.5 μM): 2 fold
increase in apoptotic cells (BxPC3 cells; 10 μM): 5 fold
